Target: PDEδ (Homo sapiens (Human), UniProt O43924)
Assay: Fluorescence polarization competition binding assay: displacement titration of labeled Atorvastatin probe for KD
Conditions: fluorescence polarization assay; activity classes; read-out: KD
Description: Example D.2: Displacement Titrations of Labeled Atorvastatin-Probe for the Determination of KD Values
Displacement Titrations of Labeled Atorvastatin-Probe for the Determination of KD Values:
The purification was followed by size exclusion gel filtration on a Superdex 75 S26/60 column using buffer A (25 mM Tris-HCl, pH 7.5, 150 mM NaCl and 3 mM DTE).

Row | Structure (SMILES) | Kd
1 | COc1cc(CN(C2CCCCC2C)S(=O)(=O)c2ccc(S(=O)(=O)NC3CCCC3)cc2)cc(OC)c1OC (centres unmarked) [Compound 60, N1-cyclopentyl-N4-(2-methylcyclohexyl)-N4-(3,4,5-trimethoxybenzyl)benzene-1,4-disulfonamide] | 0.1 to 1 µM
2 | O=S(=O)(NC1CCCC1)c1ccc(S(=O)(=O)N(Cc2ccc(F)cc2)Cc2ccc(F)cc2)cc1 [Compound 93, N1-cyclopentyl-N4,N4-bis(4-fluorobenzyl)benzene-1,4-disulfonamide] | 0.1 to 1 µM
3 | COc1cccc(CN(CC2CCCO2)S(=O)(=O)c2ccc(S(=O)(=O)N3CCCC3)cc2)c1 (centres unmarked) [Compound 67, N-(3-methoxybenzyl)-4-(pyrrolidin-1-ylsulfonyl)-N-((tetrahydrofuran-2-yl)methyl)benzenesulfonamide] | 0.1 to 1 µM
4 | O=S(=O)(NC1CCCCC1)c1ccc(S(=O)(=O)N(Cc2ccccc2)Cc2ccco2)cc1 [Compound 54, N1-benzyl-N4-cyclohexyl-N1-(furan-2-ylmethyl)benzene-1,4-disulfonamide] | 0.1 to 1 µM
5 | CC(C)(C)[Si](C)(C)OCCCN(CC1CCCCC1)S(=O)(=O)c1ccc(S(=O)(=O)N(Cc2ccc(Cl)cc2)C2CCCC2)cc1 [Compound 29] | 0.1 to 1 µM
6 | O=S(=O)(NCc1ccccc1)c1ccc(S(=O)(=O)N(Cc2ccc(Cl)cc2)Cc2ccco2)cc1 [Compound 90, N1-benzyl-N4-(4-chlorobenzyl)-N4-(furan-2-ylmethyl)benzene-1,4-disulfonamide] | 0.1 to 1 µM
7 | O=S(=O)(NCC1CCCCC1)c1ccc(S(=O)(=O)N(Cc2ccc(Cl)cc2)C2CCCC2)cc1 [Compound 8] | 0.03 to 0.1 µM
8 | COc1cccc(CN(C2CC2)S(=O)(=O)c2ccc(S(=O)(=O)NCc3ccccc3)cc2)c1OC [Compound 51, N1-benzyl-N4-cyclopropyl-N4-(2,3-dimethoxybenzyl)benzene-1,4-disulfonamide] | 0.1 to 1 µM
9 | O=S(=O)(c1ccc(S(=O)(=O)N(Cc2ccc(Cl)cc2)CC2CCCO2)cc1)N1CCCCC1 (centres unmarked) [Compound 82, N-(4-chlorobenzyl)-4-(piperidin-1-ylsulfonyl)-N-((tetrahydrofuran-2-yl)methyl)benzenesulfonamide] | 0.1 to 1 µM
10 | Nc1ccc(Br)c(CN(CC2CCNCC2)S(=O)(=O)c2ccc(S(=O)(=O)N(Cc3ccc(Cl)cc3)C3CCCC3)cc2)c1 [Compound 2, N1-(5-amino-2-bromobenzyl)-N4-(4-chlorobenzyl)-N4-cyclopentyl-N1-(piperidin-4-ylmethyl)benzene-1,4-disulfonamide] | 0.1 to 1 µM
11 | CC1CCCN(S(=O)(=O)c2ccc(S(=O)(=O)N(Cc3ccc4c(c3)OCO4)Cc3ccccc3F)cc2)C1 (centres unmarked) [Compound 72, N-(benzo[d][1,3]dioxol-5-ylmethyl)-N-(2-fluorobenzyl)-4-((3-methylpiperidin-1-yl)sulfonyl)benzenesulfonamide] | 0.1 to 1 µM
12 | Cc1ccsc1N(Cc1ccccn1)S(=O)(=O)c1ccc(S(=O)(=O)N(Cc2ccccn2)c2sccc2C)cc1 [Compound 41] | > 1 µM
13 | CCN(CC)S(=O)(=O)c1ccc(S(=O)(=O)N(Cc2ccc(F)cc2)Cc2cccc(OC)c2OC)cc1 [Compound 87, N1-(2,3-dimethoxybenzyl)-N4,N4-diethyl-N1-(4-fluorobenzyl)benzene-1,4-disulfonamide] | > 1 µM
14 | COc1ccc(CN(C2CCCCC2C)S(=O)(=O)c2ccc(S(=O)(=O)NCc3ccccc3)cc2)cc1OC (centres unmarked) [Compound 70, N1-benzyl-N4-(3,4-dimethoxybenzyl)-N4-(2-methylcyclohexyl)benzene-1,4-disulfonamide] | 0.1 to 1 µM
15 | CCOC(=O)c1ccccc1CN(CC1CCOCC1)S(=O)(=O)c1ccc(S(=O)(=O)N(Cc2ccc(Cl)cc2)C2CCCC2)cc1 [Compound 40, ethyl 2-(((4-(N-(4-chlorobenzyl)-N-cyclopentylsulfamoyl)-N-((tetrahydro-2H-pyran-4-yl)methyl)phenyl)sulfonamido)methyl)benzoate] | 0.1 to 1 µM
16 | O=S(=O)(c1ccc(S(=O)(=O)N(Cc2ccc(Cl)cc2)C2CCCC2)cc1)N(CC1CCCCC1)c1cc(C(F)(F)F)ccc1Br [Compound 37, N1-(2-bromo-5-(trifluoromethyl)phenyl)-N4-(4-chlorobenzyl)-N1-(cyclohexylmethyl)-N4-cyclopentylbenzene-1,4-disulfonamide] | 0.03 to 0.1 µM
17 | O=S(=O)(c1ccc(S(=O)(=O)N(Cc2ccc(Cl)cc2)C2CCCC2)cc1)N(CCCO)CC1CCCCC1 [Compound 32] | 0.03 to 0.1 µM
18 | CC(C)(C)OC(=O)N1CCC(CN(Cc2ccccc2)S(=O)(=O)c2ccc(S(=O)(=O)N(Cc3cc(Br)cc(Br)c3)C3CCCC3)cc2)CC1 [Compound 4, tert-butyl 4-(((N-benzyl-4-(N-cyclopentyl-N-(3,5-dibromobenzyl)sulfamoyl)phenyl)sulfonamido)methyl)piperidine-1-carboxylate] | 0.1 to 1 µM
19 | O=S(=O)(NCc1ccccc1)c1ccc(S(=O)(=O)N(Cc2ccc(Cl)cc2)C2CCCC2)cc1 [Compound 13] | 0.03 to 0.1 µM
20 | CC(C)(C)OC(=O)N1CCC(CN(Cc2ccccc2)S(=O)(=O)c2ccc(S(=O)(=O)NC3CCCC3)cc2)CC1 [Compound 3] | > 1 µM
21 | CN(C)S(=O)(=O)c1ccc(S(=O)(=O)N(Cc2ccc(Cl)cc2)Cc2ccco2)cc1 [Compound 71, N1-(4-chlorobenzyl)-N1-(furan-2-ylmethyl)-N4,N4-dimethylbenzene-1,4-disulfonamide] | > 1 µM
22 | O=S(=O)(c1ccc(S(=O)(=O)N(Cc2ccccc2)CC2CCNCC2)cc1)N(Cc1ccccc1)CC1CCNCC1 [Compound 18, N1,N4-dibenzyl-N1,N4-bis(piperidin-4-ylmethyl)benzene-1,4-disulfonamide] | 0.1 to 1 µM
23 | O=S(=O)(c1ccc(S(=O)(=O)N(Cc2ccc(F)cc2)CC2CCCO2)cc1)N1CCCCC1 (centres unmarked) [Compound 80, N-(4-fluorobenzyl)-4-(piperidin-1-ylsulfonyl)-N-((tetrahydrofuran-2-yl)methyl)benzenesulfonamide] | 0.03 to 0.1 µM
24 | CC1CCCN(S(=O)(=O)c2ccc(S(=O)(=O)N(Cc3ccccc3F)C3CCCC3)cc2)C1 (centres unmarked) [Compound 58, N-cyclopentyl-N-(2-fluorobenzyl)-4-((3-methylpiperidin-1-yl)sulfonyl)benzenesulfonamide] | 0.03 to 0.1 µM
25 | O=S(=O)(NCC1CCCO1)c1ccc(S(=O)(=O)N(Cc2ccccc2)Cc2ccccc2F)cc1 (centres unmarked) [Compound 77, N1-benzyl-N1-(2-fluorobenzyl)-N4-((tetrahydrofuran-2-yl)methyl)benzene-1,4-disulfonamide] | 0.1 to 1 µM
26 | O=S(=O)(c1ccc(S(=O)(=O)N(Cc2ccccc2)Cc2ccc(F)cc2)cc1)N1CCCC1 [Compound 86, N-benzyl-N-(4-fluorobenzyl)-4-(pyrrolidin-1-ylsulfonyl)benzenesulfonamide] | > 1 µM
27 | CCN(Cc1ccccc1)S(=O)(=O)c1ccc(S(=O)(=O)N(Cc2ccc(F)cc2)Cc2ccco2)cc1 [Compound 47, N1-benzyl-N1-ethyl-N4-(4-fluorobenzyl)-N4-(furan-2-ylmethyl)benzene-1,4-disulfonamide] | 0.03 to 0.1 µM

Now from value to compound:

Row | Kd | Structure (SMILES)
28 | 0.03 to 0.1 µM | O=S(=O)(c1ccc(S(=O)(=O)N(Cc2ccc(Cl)cc2)C2CCCC2)cc1)N(CCO)CC1CCCCC1 [Compound 31]
29 | 0.001 to 0.03 µM | O=S(=O)(c1ccc(S(=O)(=O)N(Cc2ccc(Cl)cc2)C2CCCC2)cc1)N(Cc1cnccn1)CC1CCNCC1 [Compound 11, N1-(4-chlorobenzyl)-N1-cyclopentyl-N4-(piperidin-4-ylmethyl)-N4-(pyrazin-2-ylmethyl)benzene-1,4-disulfonamide]
30 | 0.001 to 0.03 µM | O=S(=O)(c1ccc(S(=O)(=O)N(Cc2ccc(Cl)cc2)C2CCCC2)cc1)N(CCN1CCNCC1)Cc1ccccc1 [Compound 10, N1-benzyl-N4-(4-chlorobenzyl)-N4-cyclopentyl-N1-(2-(piperazin-1-yl)ethyl)benzene-1,4-disulfonamide]
31 | 0.001 to 0.03 µM | O=S(=O)(c1ccc(S(=O)(=O)N(Cc2ccc(Cl)cc2)C2CCCC2)cc1)N(Cc1cncnc1)CC1CCNCC1 [Compound 27, N1-(4-chlorobenzyl)-N1-cyclopentyl-N4-(piperidin-4-ylmethyl)-N4-(pyrimidin-5-ylmethyl)benzene-1,4-disulfonamide]
32 | 0.001 to 0.03 µM | O=S(=O)(NC1CCCC1)c1ccc(S(=O)(=O)N(Cc2ccccc2)Cc2ccccc2Cl)cc1 [Compound 98, N1-benzyl-N1-(2-chlorobenzyl)-N4-cyclopentylbenzene-1,4-disulfonamide]
33 | 0.001 to 0.03 µM | O=S(=O)(c1ccc(S(=O)(=O)N(Cc2cnc(Cl)cn2)C2CCCC2)cc1)N(Cc1ccccc1)CC1CCNCC1 [Compound 12, N1-benzyl-N4-((5-chloropyrazin-2-yl)methyl)-N4-cyclopentyl-N1-(piperidin-4-ylmethyl)benzene-1,4-disulfonamide]
34 | 0.03 to 0.1 µM | CN(Cc1ccccc1)S(=O)(=O)c1ccc(S(=O)(=O)N(Cc2ccc(F)cc2)C2CCCC2)cc1 [Compound 91, N1-benzyl-N4-cyclopentyl-N4-(4-fluorobenzyl)-N1-methylbenzene-1,4-disulfonamide]
35 | 0.001 to 0.03 µM | COc1cccc(CN(Cc2ccco2)S(=O)(=O)c2ccc(S(=O)(=O)NCC3CCCO3)cc2)c1 (centres unmarked) [Compound 84, N1-(furan-2-ylmethyl)-N1-(3-methoxybenzyl)-N4-((tetrahydrofuran-2-yl)methyl)benzene-1,4-disulfonamide]
36 | 0.001 to 0.03 µM | CCN(Cc1ccccc1)S(=O)(=O)c1ccc(S(=O)(=O)N(Cc2ccccc2)Cc2ccccn2)cc1 [Compound 48, N1,N4-dibenzyl-N1-ethyl-N4-(pyridin-2-ylmethyl)benzene-1,4-disulfonamide]
37 | 0.001 to 0.03 µM | O=S(=O)(NC1CCCCC1)c1ccc(S(=O)(=O)N(Cc2ccccc2)CC2CCCO2)cc1 (centres unmarked) [Compound 65, N1-benzyl-N4-cyclohexyl-N1-((tetrahydrofuran-2-yl)methyl)benzene-1,4-disulfonamide]
38 | 0.001 to 0.03 µM | CCN(Cc1ccccc1)S(=O)(=O)c1ccc(S(=O)(=O)N(Cc2ccccc2)Cc2ccccc2F)cc1 [Compound 49, N1,N4-dibenzyl-N1-ethyl-N4-(2-fluorobenzyl)benzene-1,4-disulfonamide]
